According to patent US8178699B2, “Modulators of CCR9 receptor and methods of use thereof” (Pfizer Inc., priority 2008, dated 2012):
Where a name gives a salt, the structure may show the parent alone.

Biological target: T1, human CCR9 receptor (Homo sapiens, UniProt P51686)
T1 construct: expressed in transfected cells
T1 sequence (P51686 1-369): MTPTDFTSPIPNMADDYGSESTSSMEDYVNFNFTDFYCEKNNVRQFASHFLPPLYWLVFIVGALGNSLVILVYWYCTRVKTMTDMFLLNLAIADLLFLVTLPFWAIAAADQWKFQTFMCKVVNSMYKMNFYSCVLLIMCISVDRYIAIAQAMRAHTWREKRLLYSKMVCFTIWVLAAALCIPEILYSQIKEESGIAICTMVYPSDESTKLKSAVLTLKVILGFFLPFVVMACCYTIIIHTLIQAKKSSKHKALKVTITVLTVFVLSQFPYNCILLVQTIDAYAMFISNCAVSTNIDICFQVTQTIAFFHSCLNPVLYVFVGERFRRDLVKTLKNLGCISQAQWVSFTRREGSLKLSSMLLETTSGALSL
Test: CCR9 FLIPR/FlexStation Assay (inhibition of TECK induced calcium mobilization)
Format: cell-based
Settings: CCR9 antagonist activity; TECK induced calcium mobilization in CCR9-Flp-CHO cells stably over expressing human CCR9; rhTECK at EC70; read-out: Binding IC50
Description: Exemplary methods are described in US Publication Nos. US2004/0180892 and US2005/0049286, which are incorporated herein by reference. An exemplary assay for determining CCR9 antagonist activity of the compounds provided herein is CCR9 FLIPR/FlexStation Assay. In certain embodiments, the following protocol is used for the assay:
CCR9 FLIPR/FlexStation Assay Protocol
Calcium assay in FLIPR/FlexStation determines inhibitors of TECK induced calcium mobilization in CCR9-Flp-CHO cells that stably over express human CCR9 receptor. CCR9-Flp-CHO cells are seeded at 25,000 cells/well in a clear bottom, black wall 96-well plate (Greiner #655090) one day prior to assay. Cells are grown in a tissue culture incubator at 37° C. with 5% CO2 for 18 to 24 hours.
Wash buffer and dye loading buffer are prepared fresh each time the assay is performed. Wash buffer is prepared according to the following protocol: 20 ml 10×HBSS (Invitrogen Gibco #14065-056), 4 ml 1M HEPES (Sigma H3784), 174 ml sterile deionized water; then add 140 mg probenecid (Sigma P8761) dissolved in 2 ml 1M NaOH (Fisher S318) to solution and pH to 7.4. This wash buffer contains 1×HBSS, 20 mM HEPES and 2.5 mM probenecid. For one 96-well plate, dye loading buffer is prepared as following: 11 ml wash buffer, 44 μl Fluo-4/pluoronic acid mix (prepared from 22 μL aliquot of 2 mM Fluo-4 (Molecular Probes F14202, 1 mg/tube)+22 μl 20% pluronic F-127 (Molecular Probes P3000MP).
Cells are loaded with dye according to the protocol below:
1. Prepare wash buffer with 1×HBSS/HEPES at room temperature
2. Prepare loading buffer (keep in dark)
3. Aspirate culture media and wash with 100 μl wash buffer per well×1
4. Add 100 μl dye loading buffer to each well
5. Incubate at 37° C. for 30 minutes
6. Aspirate loading buffer
7. Wash with 100 μl wash buffer per well×3
8. Add 100 μl wash buffer per well
9. Incubate at 37° C. for 30 minutes
10. Assay plate with FLIPR or FlexStation
10 mM stock compounds in DMSO are prepared and diluted in DMSO to 1 mM. Compounds are diluted in wash buffer to make 8 point series dilutions containing same final concentration of DMSO (1%). Compounds are tested in duplicate wells for each point. Ligand rhTECK (R&D Systems 334-TK) was diluted to 6× of its EC70 with wash buffer. Appropriate amount of 6× ligand is added to each well. Data is analyzed using XLfit3 software to calculate IC50 value of antagonist activity for each compound.
CCR9 antagonist activity of exemplary compounds was determined using CCR9 FLIPR/FlexStation Assay as described in Section 4.4 and is provided in Table 1 below. The IC50 for the compounds are represented as follows: A≦100 nM; B>100-500 nM; C>500 nM.

Structure (SMILES)	IC50 [nM]
CC(C)(C)c1ccc(S(=O)(=O)Nc2ccsc2C(=O)O)c(-c2cccc(Cl)c2)c1 [Example 53, 3-(5-tert-butyl-3′-chlorobiphenyl-2-ylsulfonamido)thiophene-2-carboxylic acid, disodium salt]	> 500
O=C(O)c1sccc1NS(=O)(=O)c1c(Cl)cc(C(F)(F)F)cc1Cl [Example 51, 3-[2,6-dichloro-4-(trifluoromethyl)phenylsulfonamido]thiophene-2-carboxylic acid, disodium salt]	> 500
CCc1ccccc1-c1cccc(S(=O)(=O)Nc2ccsc2C(=O)O)c1 [Example 39, 3-(2′-ethylbiphenyl-3-ylsulfonamido)thiophene-2-carboxylic acid, disodium salt]	> 500
O=C(O)c1sccc1NS(=O)(=O)c1ccc(N2CCOCC2)cc1 [Example 23, 3-[(4-morpholin-4-yl)phenylsulfonamido]thiophene-2-carboxylic acid, disodium salt]	> 500
CC(C)(C)c1ccc(S(=O)(=O)Nc2ccsc2C(=O)O)c(-c2ccncc2Cl)c1 [Example 45, 3-[4-tert-Butyl-2-(3-chloropyridin-4-yl)phenyl-sulfonamido]thiophene-2-carboxylic acid]	> 500
CC(=O)Oc1cc(C(C)(C)C)ccc1S(=O)(=O)Nc1ccsc1C(=O)O [Example 12, 3-(2-acetoxy-4-tert-butylphenylsulfonamido)thiophene-2-carboxylic acid, disodium salt]	100 to 500
O=C(O)c1sccc1NS(=O)(=O)c1ccc(-n2cccn2)cc1 [Example 31, 3-[4-(1H-pyrazol-1-yl)phenylsulfonamido]thiophene-2-carboxylic acid, disodium salt]	> 500
Cc1cc(S(=O)(=O)Nc2ccsc2C(=O)O)ccc1N1CCCC1 [Example 32, 3-(3-methyl-4-(pyrrolidin-1-yl)phenylsulfonamido)thiophene-2-carboxylic acid, disodium salt]	> 500
O=C(O)c1sccc1NS(=O)(=O)c1ccc2c(c1)CCC2 [Example 33, 3-(2,3-dihydro-1H-indene-5-sulfonamido)thiophene-2-carboxylic acid, disodium salt]	> 500
CC(C)(C)c1ccc(S(=O)(=O)Nc2ccsc2C(=O)O)c(-c2ccc(Cl)cc2)c1 [Example 2, 3-(5-tert-butyl-4′-chlorobiphenyl-2-ylsulfonamido)thiophene-2-carboxylic acid, disodium salt]	> 500
CC(C)(C)c1ccc(S(=O)(=O)Nc2ccsc2C(=O)O)c(Oc2ccccc2)c1 [Example 28, 3-(4-tert-butyl-2-phenoxyphenylsulfonamido)thiophene-2-carboxylic acid, disodium salt]	> 500
CN(C)c1ccc(-c2cc(C(C)(C)C)ccc2S(=O)(=O)Nc2ccsc2C(=O)O)cc1 [Example 4, 3-[5-tert-butyl-4′-(dimethylamino)biphenyl-2-ylsulfonamido]thiophene-2-carboxylic acid, disodium salt]	> 500
Cc1ccccc1-c1cccc(S(=O)(=O)Nc2ccsc2C(=O)O)c1 [Example 22, 3-(2′-methylbiphenyl-3-ylsulfonamido)thiophene-2-carboxylic acid, disodium salt]	> 500

Continued, values first:

IC50 [nM]	Structure (SMILES)
100 to 500	COCCCc1cc(C(C)(C)C)ccc1S(=O)(=O)Nc1ccsc1C(=O)O [Example 59, 3-[4-tert-butyl-2-(3-methoxypropyl)phenylsulfonamido]thiophene-2-carboxylic acid, disodium salt]
> 500	CC(C)(C)c1ccc(S(=O)(=O)Nc2ccsc2C(=O)O)c(-c2cncnc2)c1 [Example 5, 3-[4-tert-butyl-2-(pyrimidin-5-yl)phenylsulfonamido]thiophene-2-carboxylic acid, disodium salt]
100 to 500	CC(C)(C)c1ccc(S(=O)(=O)Nc2ccsc2C(=O)O)c(N2CCCCC2)c1 [Example 47, 3-[4-tert-Butyl-2-(piperidin-1-yl)phenylsulfonamido]thiophene-2-carboxylic acid]
> 500	CCCOc1ccccc1-c1cccc(S(=O)(=O)Nc2ccsc2C(=O)O)c1 [Example 44, 3-(2′-propoxybiphenyl-3-ylsulfonamido)thiophene-2-carboxylic acid, disodium salt]
≤ 100	O=C(O)c1sccc1NS(=O)(=O)c1ccc(OC(F)(F)F)cc1Cl [Example 50, 3-[2-chloro-4-(trifluoromethoxy)phenylsulfonamido]thiophene-2-carboxylic acid, disodium salt]
> 500	CC1(C)CCC(C)(C)c2cc(S(=O)(=O)Nc3ccsc3C(=O)O)ccc21 [Example 49, 3-(5,5,8,8-tetramethyl-5,6,7,8-tetrahydronaphthalene-2-sulfonamido)thiophene-2-carboxylic acid, disodium salt]
100 to 500	CC(C)(C)c1ccc(S(=O)(=O)Nc2ccsc2C(=O)O)c(-c2ccoc2)c1 [Example 60, 3-[4-tert-butyl-2-(furan-3-yl)-phenylsulfonamido]thiophene-2-carboxylic acid, disodium salt]
≤ 100	CC(C)(C)c1ccc(S(=O)(=O)Nc2ccsc2C(=O)O)cc1 [Example 16, 3-(4-tert-butylphenylsulfonamido)thiophene-2-carboxylic acid, disodium salt]
≤ 100	O=C(O)c1sccc1NS(=O)(=O)c1ccc(C2CCCC2)cc1F [Example 36, 3-(4-cyclopentyl-2-fluorophenylsulfonamido)thiophene-2-carboxylic acid, disodium salt]
≤ 100	CCc1cc(C(C)(C)C)ccc1S(=O)(=O)Nc1ccsc1C(=O)O [Example 48, 3-(4-tert-butyl-2-ethylphenylsulfonamido)thiophene-2-carboxylic acid, disodium salt]
≤ 100	CC(C)(C)c1ccc(S(=O)(=O)Nc2ccsc2C(=O)O)c(F)c1 [Example 29, 3-(4-tert-butyl-2-fluorophenylsulfonamido)thiophene-2-carboxylic acid, disodium salt]
100 to 500	O=C(O)c1sccc1NS(=O)(=O)c1ccc(C2CCCCC2)cc1 [Example 34, 3-(4-cyclohexylphenylsulfonamido)thiophene-2-carboxylic acid, disodium salt]
≤ 100	C=Cc1cc(C(C)(C)C)ccc1S(=O)(=O)Nc1ccsc1C(=O)O [Example 61, 3-(4-tert-butyl-2-vinylphenylsulfonamido)thiophene-2-carboxylic acid, disodium salt]
100 to 500	CC(C)c1ccc(S(=O)(=O)Nc2ccsc2C(=O)O)cc1 [Example 37, 3-[4-(iso-propylphenyl)sulfonamido]thiophene-2-carboxylic acid, disodium salt]
≤ 100	CC(C)(C)c1ccc(S(=O)(=O)Nc2ccsc2C(=O)O)c(CCC2CC2)c1 [Example 57, 3-[4-tert-Butyl-2-(2-cyclopropylethyl)phenylsulfonamido]thiophene-2-carboxylic acid, disodium salt]
100 to 500	CCC(C)(C)c1ccc(S(=O)(=O)Nc2ccsc2C(=O)O)cc1 [Example 18, 3-(4-(1,1-Dimethylpropyl)phenylsulfonamido)thiophene-2-carboxylic acid, sodium salt]
100 to 500	CC(C)(C)c1ccc(S(=O)(=O)Nc2c(C(=O)O)sc3ccccc23)cc1 [Example 24, 3-(4-tert-butylphenylsulfonamido)benzo[b]thiophene-2-carboxylic acid, disodium salt]
100 to 500	CC(C)(C)c1ccc(S(=O)(=O)Nc2ccsc2C(=O)O)c(/C=C/c2ccccc2)c1 [Example 7, 3-(4-tert-butyl-2-styrylphenylsulfonamido)thiophene-2-carboxylic acid, disodium salt]
